Results published in ChEMBL document CHEMBL4483862, “Open-source discovery of chemical leads for next-generation chemoprotective antimalarials” (2018).

Test system: Plasmodium berghei
Test: Luciferase/luciferin-expressing antifolate-resistant parasites were used to infect a culture of HepG2 cells that were pre-incubated with compounds. Infected hepatocytes emit light due to the luciferase reaction. Assay results are presented as the percent inhibition of light emission compared to control. […]
Type: functional
Details: sporozoite; for IC90: read-out: LUCIFERASE INFECTION ASSAY - IC90
[1] = read-out: LUCIFERASE INFECTION ASSAY - IC50

Cc1ccc2nc(NC(=O)c3ccc(Cl)cc3)c(C(=O)NC3CCCC3)n2c1
IC50 (HEPG2TOX_HILL_SLOPE 3.44, HEPG2TOX_R_SQUARED 0.175, PBLUC_HILL_SLOPE 15.5, PBLUC_R_SQUARED 0.331, read-out: LUCIFERASE INFECTION ASSAY - IC50): 2.68 µM | IC90: 3.09 µM

COc1ccc(-c2cnc3cnc(-c4ccc(OC)nc4)cn23)cc1
IC50 (HEPG2TOX_HILL_SLOPE 10.4, HEPG2TOX_R_SQUARED 0.778, PBLUC_HILL_SLOPE 1.98, PBLUC_R_SQUARED 0.81, read-out: LUCIFERASE INFECTION ASSAY - IC50): 2.91 µM | IC90: 8.79 µM

COc1ccc(/C(C#N)=C/c2ccccc2OC)cc1
IC50 (HEPG2TOX_HILL_SLOPE 1.28, HEPG2TOX_R_SQUARED 0.968, PBLUC_HILL_SLOPE 1.65, PBLUC_R_SQUARED 0.898, read-out: LUCIFERASE INFECTION ASSAY - IC50): 0.597 µM | IC90: 2.26 µM

O=C(CNc1cccc(S(=O)(=O)N2CCOCC2)c1)N(C1CCCCC1)C1CCS(=O)(=O)C1 (stereo unspecified)
IC50 [1]: > 10 µM | IC90: > 10 µM

COc1cccc(-c2nc3ccc(NC(=O)CC(C)(C)C)cn3n2)c1
IC50 (PBLUC_HILL_SLOPE 0.895, PBLUC_R_SQUARED 0.614, read-out: LUCIFERASE INFECTION ASSAY - IC50): 0.974 µM | IC90: > 10 µM

Cc1cccc(C)c1NC(=O)NCCSCc1c(Cl)cccc1Cl
IC50 [1]: > 8.61 µM | IC90: > 8.61 µM

OC(COc1ccc(Cl)c(Cl)c1)CN1CCC(Nc2nccc(C(F)(F)F)n2)CC1 (stereo unspecified)
IC50 (PBLUC_HILL_SLOPE 16.2, PBLUC_R_SQUARED 0.0623, read-out: LUCIFERASE INFECTION ASSAY - IC50): 6.96 µM | IC90: > 7.09 µM

CCN(C(=O)CN(Cc1ccccc1)S(=O)(=O)/C=C/c1ccccc1)c1cccc2ccccc12
IC50 (HEPG2TOX_HILL_SLOPE 0.0751, HEPG2TOX_R_SQUARED 0.254, read-out: LUCIFERASE INFECTION ASSAY - IC50): > 10 µM | IC90: > 10 µM

O=C(O)C1CSC(c2ccccc2)N1 (stereo unspecified)
IC50 [1]: > 15.8 µM | IC90: > 15.8 µM

Cc1ccc(N2C(=O)/C(=C/c3ccc(C(C)C)cc3)N=C2SCC(=O)C23CC4CC(CC(C4)C2)C3)cc1
IC50 (FFLUC_HILL_SLOPE 28, FFLUC_R_SQUARED 0.571, PBLUC_HILL_SLOPE 16, PBLUC_R_SQUARED 0.0407, read-out: LUCIFERASE INFECTION ASSAY - IC50): 9.9 µM | IC90: > 10 µM

COCCCn1c(C)cc(C(=O)CSc2nc(C)nc3c2c(=O)n(C)c(=O)n3CC(C)C)c1C
IC50 [1]: > 10 µM | IC90: > 10 µM

COc1cccc(C(=O)Nc2nc3ccccc3[nH]2)c1
IC50 [1]: > 10 µM | IC90: > 10 µM

Cn1c(-c2ccsc2)cc2c(Nc3ccc(Oc4ccccc4)cc3)nccc21
IC50 (HEPG2TOX_HILL_SLOPE 11.7, HEPG2TOX_R_SQUARED 0.553, PBLUC_HILL_SLOPE 10.6, PBLUC_R_SQUARED 0.752, read-out: LUCIFERASE INFECTION ASSAY - IC50): 2.8 µM | IC90: 3.44 µM

CC(=O)Nc1cccc(C(=O)/C=C/c2cn(-c3ccccc3)nc2-c2ccncc2)c1
IC50 [1]: > 10 µM | IC90: > 10 µM

CCc1nc2ccccc2c(C(=O)OCC(=O)Nc2ccc(C#N)cc2)c1C
IC50 (PBLUC_HILL_SLOPE 2.25, PBLUC_R_SQUARED 0.588, read-out: LUCIFERASE INFECTION ASSAY - IC50): 4.96 µM | IC90: > 10 µM

O=C(NC(=S)Nc1ccc(Oc2cc(C(F)(F)F)cc(C(F)(F)F)c2)cc1)c1ccccc1
IC50 (PBLUC_HILL_SLOPE 1.93, PBLUC_R_SQUARED 0.641, read-out: LUCIFERASE INFECTION ASSAY - IC50): 1.37 µM | IC90: 4.3 µM

O=C(Nc1ccc(C(F)(F)F)cc1[N+](=O)[O-])c1ccccc1O
IC50 (HEPG2TOX_HILL_SLOPE 10.5, HEPG2TOX_R_SQUARED 0.302, PBLUC_HILL_SLOPE 15.7, PBLUC_R_SQUARED 0.498, read-out: LUCIFERASE INFECTION ASSAY - IC50): 3.21 µM | IC90: 3.69 µM

CC(=O)Nc1ccc(/C=C2\COc3c(Cl)cc(Cl)cc3C2=O)cc1
IC50 (FFLUC_HILL_SLOPE 4.35, FFLUC_R_SQUARED 0.359, read-out: LUCIFERASE INFECTION ASSAY - IC50): > 10 µM | IC90: > 10 µM

Nc1ncc(-c2ccccc2Oc2ccccc2)cc1-c1ccc(O)cc1
IC50 (FFLUC_HILL_SLOPE 1.5, FFLUC_R_SQUARED 0.249, PBLUC_HILL_SLOPE 4.63, PBLUC_R_SQUARED 0.261, read-out: LUCIFERASE INFECTION ASSAY - IC50): 6.66 µM | IC90: > 9.31 µM

Cc1nc2ccc(I)cn2c1/C=N/Nc1ccccn1
IC50 (PBLUC_HILL_SLOPE 2.99, PBLUC_R_SQUARED 0.247, read-out: LUCIFERASE INFECTION ASSAY - IC50): 6.77 µM | IC90: > 10 µM

COc1cc(OC)cc(-c2cnc3cnc(-c4cccc(N)c4)cn23)c1
IC50 (FFLUC_HILL_SLOPE 17.8, FFLUC_R_SQUARED 0.255, PBLUC_HILL_SLOPE 12.5, PBLUC_R_SQUARED 0.443, read-out: LUCIFERASE INFECTION ASSAY - IC50): 9.41 µM | IC90: > 9.53 µM

CSc1sc(C(=O)N/N=C/c2ccccc2Cl)c2c1C(O)CCC2 (stereo unspecified)
IC50 (HEPG2TOX_HILL_SLOPE 0.679, HEPG2TOX_R_SQUARED 0.968, PBLUC_HILL_SLOPE 1.34, PBLUC_R_SQUARED 0.516, read-out: LUCIFERASE INFECTION ASSAY - IC50): 2.1 µM | IC90: > 8.66 µM

CCn1c(SCC(=O)N2N=C(c3ccco3)CC2c2ccco2)nc2ccsc2c1=O (stereo unspecified)
IC50 (FFLUC_HILL_SLOPE 1.6, FFLUC_R_SQUARED 0.281, read-out: LUCIFERASE INFECTION ASSAY - IC50): > 10 µM | IC90: > 10 µM

O=c1c(Cl)c(NCC(c2ccco2)N2CCCCC2)cnn1-c1nc2ccccc2[nH]1 (stereo unspecified)
IC50 (PBLUC_HILL_SLOPE 10.1, PBLUC_R_SQUARED 0.23, read-out: LUCIFERASE INFECTION ASSAY - IC50): 8.87 µM | IC90: > 10 µM

CCCN(CCC)C(=S)NC(=O)c1cccc([N+](=O)[O-])c1
IC50 (PBLUC_HILL_SLOPE 0.519, PBLUC_R_SQUARED 0.204, read-out: LUCIFERASE INFECTION ASSAY - IC50): > 10.7 µM | IC90: > 10.7 µM

NC(CCc1ccccc1)c1csc(NC(=O)Nc2ccccc2)n1 (stereo unspecified)
IC50 (PBLUC_HILL_SLOPE 42.7, PBLUC_R_SQUARED 0.194, read-out: LUCIFERASE INFECTION ASSAY - IC50): 9.14 µM | IC90: > 9.36 µM

COCCCn1c(-c2ccc(C(C)(C)C)cc2)n[nH]c1=S
IC50 (PBLUC_HILL_SLOPE 2.97, PBLUC_R_SQUARED 0.207, read-out: LUCIFERASE INFECTION ASSAY - IC50): 6.76 µM | IC90: > 10.8 µM

C=CCn1c(N)c(-c2nc3ccccc3[nH]2)c2nc3ccccc3nc21
IC50 (PBLUC_HILL_SLOPE 3.6, PBLUC_R_SQUARED 0.636, read-out: LUCIFERASE INFECTION ASSAY - IC50): 5.99 µM | IC90: > 9.69 µM

CCCCCCn1c(SCC(=O)Nc2sc(C(=O)N(CC)CC)c(C)c2C(=O)OCC)nc2ccccc21
IC50 [1]: > 10 µM | IC90: > 10 µM

FC(F)(F)c1ccc(NCCNc2ccc(C(F)(F)F)cn2)nc1
IC50 [1]: 1.24 µM | IC90: 2.55 µM

CCOC(=O)c1c(C)nn(-c2ncccc2NC(=O)Nc2cccc(Cl)c2Cl)c1C
IC50 (HEPG2TOX_HILL_SLOPE 1.28, HEPG2TOX_R_SQUARED 0.665, PBLUC_HILL_SLOPE 11.5, PBLUC_R_SQUARED 0.0917, read-out: LUCIFERASE INFECTION ASSAY - IC50): 6.84 µM | IC90: > 7.36 µM

CCCS(=O)(=O)NC(=O)C1(C)CCCN(C(=O)c2ccccc2OC)C1 (stereo unspecified)
IC50 [1]: > 8.63 µM | IC90: > 8.63 µM

O=C1Nc2ccc([N+](=O)[O-])cc2C12NNc1ccccc1O2 (stereo unspecified)
IC50 [1]: > 10 µM | IC90: > 10 µM

CNc1nc2cnc(-c3ccc(OC)cc3C)cc2n1Cc1ccc(OC)c(OC)c1
IC50 (PBLUC_HILL_SLOPE 14.3, PBLUC_R_SQUARED 0.611, read-out: LUCIFERASE INFECTION ASSAY - IC50): 1.04 µM | IC90: 1.22 µM

Cc1ccc(-c2cnn3c(NCCN(C)C)cc(C)nc23)cc1
IC50 (PBLUC_HILL_SLOPE 1.98, PBLUC_R_SQUARED 0.569, read-out: LUCIFERASE INFECTION ASSAY - IC50): 3.5 µM | IC90: 10.6 µM

CC(C)Cn1c(N)c(C(=O)CSc2nnc(COc3ccccc3Cl)o2)c(=O)n(C)c1=O
IC50 [1]: 3.28 µM | IC90: 3.85 µM

O=C(Nc1ccc(N2CCOCC2)cc1)c1ccccc1Nc1ccc(F)cc1
IC50 [1]: > 10 µM | IC90: > 10 µM

COc1ccc(C(=O)C(/C=N/N)=N/Nc2ccc(C(F)(F)F)cc2)cc1
IC50 (HEPG2TOX_HILL_SLOPE 1.78, HEPG2TOX_R_SQUARED 0.947, PBLUC_HILL_SLOPE 3.28, PBLUC_R_SQUARED 0.359, read-out: LUCIFERASE INFECTION ASSAY - IC50): 4.5 µM | IC90: 8.8 µM

CC(C)(C)C(=O)/C=c1\[nH]c(=O)/c(=C\c2ccc(Oc3ccc(F)cc3)c([N+](=O)[O-])c2)s1
IC50 [1]: > 10 µM | IC90: > 10 µM

COCC(=O)N1CCCC(C)(C(=O)NCc2cnc(C)cn2)C1 (stereo unspecified)
IC50 [1]: > 10.3 µM | IC90: > 10.3 µM

O=C(O)c1c2c(nc3ccccc13)/C(=C/c1ccccc1Cl)CC2
IC50 (PBLUC_HILL_SLOPE 0.525, PBLUC_R_SQUARED 0.706, read-out: LUCIFERASE INFECTION ASSAY - IC50): 0.569 µM | IC90: > 10 µM

CC(C)NS(=O)(=O)c1ccc(NC(=S)NC(=O)C(c2ccccc2)c2ccccc2)cc1
IC50 (FFLUC_HILL_SLOPE 1.86, FFLUC_R_SQUARED 0.596, HEPG2TOX_HILL_SLOPE 15.1, HEPG2TOX_R_SQUARED 0.768, PBLUC_HILL_SLOPE 9.02, PBLUC_R_SQUARED 0.275, read-out: LUCIFERASE INFECTION ASSAY - IC50): 8.35 µM | IC90: > 10 µM

CCOc1ccc(C=C(c2nc3ccccc3s2)c2nc3ccccc3s2)cc1OC
IC50 (HEPG2TOX_HILL_SLOPE 4.58, HEPG2TOX_R_SQUARED 0.874, PBLUC_HILL_SLOPE 9.07, PBLUC_R_SQUARED 0.629, read-out: LUCIFERASE INFECTION ASSAY - IC50): 3.54 µM | IC90: 4.51 µM
